From article PMC4506051, “Pharmacokinetic Profiles of Active Ingredients and Its Metabolites Derived from Rikkunshito, a Ghrelin Enhancer, in Healthy Japanese Volunteers: A Cross-Over, Randomized Study” (PLoS ONE, 2015)
Where two headings read alike, the source gives them in different places.

Experiments:
[1] = Method validation: post-preparative stability (autosampler)
[2] = Method validation: stability in standard, stock and working solution; details: for Working solution stability, RR: refrigerator (1°C to 8°C) for 53 days; for Stock solution stability, RR: 0.8 mg/mL; for Short-term stability of standard solution, RR: at room temperature for 24 h
[3] = Randomized crossover quantitative trial: plasma pharmacokinetics of nine ingredients after rikkunshito 2.5, 5.0 or 7.5 g; details: for Tmax / AUC(0-t) / Cmax / half-life: human
Method in brief: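 Healthy Japanese adults (20–45 y, BMI 18–25), fasted 12 h before and 4 h after dosing, received single oral rikkunshito 2.5, 5.0 or 7.5 g in a randomized open-label three-period crossover. Plasma sampled 0–48 h; ingredients quantified by LC–MS/MS or GC–MS.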

[4] = cited from earlier work
[5] = Method validation: long-term stability in plasma
[6] = Method validation: short-term stability in plasma
[7] = Dose proportionality (linearity) test by power model for C max and AUC0-last; details: for Dose proportionality test using power model, β: rikkunshito 2.5, 5.0 or 7.5 g; for Dose proportionality test using power model, Inference: linear when 90% CI of β included 1, CIlower ≥0.8, and CIupper ≤1.25
Protocol: The dose proportionality was analyzed via a power model [21, 22]. […] Evaluation of linearity of the dosage-exposure relationship was conducted with Phoenix WinNonlin and SAS 9.2 (SAS Institute, Inc., Cary, NC).

[8] = Method validation: stability in blood
[9] = Stability of ingredients in gastric pH solution (pH 1.2, 37°C); format: physicochemical; details: for Stability in gastric pH solution, Quantitative value: rikkunshito in acidic solution (pH 1.2) at 37°C
Protocol: Rikkunshito gradually dissolved in acidic solution (pH 1.2) at 37°C, and the concentration of atractylodin after adding 0.25, 0.5, 1, and 2 h was measured by gas chromatography–mass spectrometry.

[10] = Method validation: freeze-thaw stability in plasma; details: deep freezer
[11] = rikkunshito 7.5 g single oral, n = 19, geometric mean (95% CI)
[12] = rikkunshito 7.5 g single oral, n = 19, median (minimum–maximum)

CC1(C)[C@@H](O)CC[C@]2(C)[C@H]3C(=O)C=C4[C@@H]5C[C@@](C)(C(=O)O)CC[C@]5(C)CC[C@@]4(C)[C@]3(C)CC[C@@H]12 [18β-Glycyrrhetinic acid]
Post-preparative stability, RR ([1]; 1600 pg/mL, autosampler set at 4°C for 24 h): 106.0% | Post-preparative stability, RR ([1]; 1600 pg/mL, autosampler set at 4°C for 48 h): 110.8% | Post-preparative stability, RR ([1]; 64000 pg/mL, autosampler set at 4°C for 24 h): 104.9% | Post-preparative stability, RR ([1]; 64000 pg/mL, autosampler set at 4°C for 48 h): 111.4% | Working solution stability, RR ([2]; 8 ng/mL): 108.4% | Working solution stability, RR ([2]; 800 ng/mL): 100.7% | Stock solution stability, RR ([2]; refrigerator (1°C to 8°C) for 54 days): 54 days: 100.0% | Stock solution stability, RR ([2]; refrigerator (1°C to 8°C) for 129 days): 129 days: 100.0% | Tmax ([3]; plasma, oral, t max, after rikkunshito administration, dose not given): 8 h | AUC(0-t) ([3]; plasma, po, 2.5 g, AUC0-last, rikkunshito 2.5 g single oral, n = 21, geometric mean (95% CI)): 292 ng·h/mL | Cmax ([3]; plasma, po, 2.5 g, C max, rikkunshito 2.5 g single oral, n = 21, geometric mean (95% CI)): 23 ng/mL | Tmax ([3]; plasma, po, 2.5 g, Median t max (range), rikkunshito 2.5 g single oral, n = 21, median (minimum–maximum)): 8 h | AUC(0-t) ([3]; plasma, po, 5 g, AUC0-last, rikkunshito 5.0 g single oral, n = 19, geometric mean (95% CI)): 638 ng·h/mL | Cmax ([3]; plasma, po, 5 g, C max, rikkunshito 5.0 g single oral, n = 19, geometric mean (95% CI)): 44.2 ng/mL | Tmax ([3]; plasma, po, 5 g, Median t max (range), rikkunshito 5.0 g single oral, n = 19, median (minimum–maximum)): 8 h | half-life ([3]; plasma, po, 5 g, t 1/2, rikkunshito 5.0 g single oral, n = 19, geometric mean (95% CI)): 8.94 h | AUC(0-t) ([3]; plasma, po, 7.5 g, AUC0-last, rikkunshito 7.5 g single oral, n = 19, geometric mean (95% CI)): 832 ng·h/mL | Cmax ([3]; plasma, po, 7.5 g, C max, rikkunshito 7.5 g single oral, n = 19, geometric mean (95% CI)): 55.6 ng/mL | half-life ([3]; plasma, po, 7.5 g, t 1/2, rikkunshito 7.5 g single oral, n = 19, geometric mean (95% CI)): > 10 h | t 1/2 [3, 11]: 11.7 (8.90–15.3) h | Median t max (range) [3, 12]: 8.00 (5.98–23.7) h | Median t max (range) ([3]; rikkunshito 7.5 g single oral, n = 19, median (minimum–maximum), listed as 18β-glycyrrhetinic acid): exceeding 3 h | half-life ([4]; protocol rationale for final sampling time): approximately 10 h | Long-term stability, RR ([5]; 1600 pg/mL, freezer (−30°C to −10°C) for 13 days): 102.6% | Long-term stability, RR ([5]; 1600 pg/mL, freezer (−30°C to −10°C) for 39 days): 108.3% | Long-term stability, RR ([5]; 1600 pg/mL, freezer (−30°C to −10°C) for 228 days): 113.5% | Long-term stability, RR ([5]; 64000 pg/mL, freezer (−30°C to −10°C) for 13 days): 113.1% | Long-term stability, RR ([5]; 64000 pg/mL, freezer (−30°C to −10°C) for 39 days): 104.4% | Long-term stability, RR ([5]; 64000 pg/mL, freezer (−30°C to −10°C) for 228 days): 109.2% | Short-term stability, RR ([6]; 1600 pg/mL, at room temperature for 4 h): 89.0% | Short-term stability, RR ([6]; 1600 pg/mL, at room temperature for 25 h): 90.2% | Short-term stability, RR ([6]; 64000 pg/mL, at room temperature for 4 h): 98.9% | Short-term stability, RR ([6]; 64000 pg/mL, at room temperature for 25 h): 105.0% | Dose proportionality test using power model, β ([7]; AUC0-last): 0.979 | Dose proportionality test using power model, β ([7]; Cmax): 0.819 | Stability in blood, RR ([8]; 1600 pg/mL, at room temperature for 2 h): 104.2% | Stability in blood, RR ([8]; 1600 pg/mL, on ice for 2 h): 108.8% | Stability in blood, RR ([8]; 64000 pg/mL, at room temperature for 2 h): 98.2% | Stability in blood, RR ([8]; 64000 pg/mL, on ice for 2 h): 99.1%

C/C=C/C#CC#C/C=C/c1ccco1 [Atractylodin]
Post-preparative stability, RE ([1]; atractylodin 0.600 ng/mL, autosampler set at 4°C for 24 h): -3.8% | Post-preparative stability, RE ([1]; atractylodin 0.600 ng/mL, autosampler set at 4°C for 48 h): 4.0% | Post-preparative stability, RE ([1]; atractylodin 16.0 ng/mL, autosampler set at 4°C for 24 h): 9.0% | Post-preparative stability, RE ([1]; atractylodin 16.0 ng/mL, autosampler set at 4°C for 48 h): 8.7% | Stability in a solution with the same pH as that in the stomach ([9]; pH 1.2, 37°C, S10 Table): stable | Stability in gastric pH solution, Quantitative value ([9]; 0.5 h): 9.03 ng/mL | Stability in gastric pH solution, Quantitative value ([9]; 1 h): 9.72 ng/mL | Stability in gastric pH solution, Quantitative value ([9]; 2 h): 8.13 ng/mL | Short-term stability of standard solution, RR ([2]; atractylodin 1.00 ng/mL): 104.6% | Short-term stability of standard solution, RR ([2]; atractylodin 5000 ng/mL): 106.7% | Plasma concentration just before the administration ([3]; all subjects, quantitative trial): BQL | AUC(0-t) ([3]; in vivo, po, 2.5 g): 0.318 ng·h/mL | Cmax ([3]; in vivo, po, 2.5 g): 0.531 ng/mL | Tmax ([3]; in vivo, po, 2.5 g, Median t max (range), rikkunshito 2.5 g single oral, n = 21, median (minimum–maximum)): 0.5 h | AUC(0-t) ([3]; in vivo, po, 5 g): 1.06 ng·h/mL | Cmax ([3]; in vivo, po, 5 g): 1.02 ng/mL | Tmax ([3]; in vivo, po, 5 g, Median t max (range), rikkunshito 5.0 g single oral, n = 19, median (minimum–maximum)): 0.5 h | half-life ([3]; in vivo, po, 5 g, t 1/2, rikkunshito 5.0 g single oral, n = 19, geometric mean (95% CI)): 0.746 h | AUC(0-t) ([3]; in vivo, po, 7.5 g): 1.76 ng·h/mL | Cmax ([3]; in vivo, po, 7.5 g): 1.57 ng/mL | Tmax ([3]; in vivo, po, 7.5 g, Median t max (range), rikkunshito 7.5 g single oral, n = 19, median (minimum–maximum)): ≤ 1 h | t 1/2 [3, 11]: 0.888 (0.687–1.15) h | Median t max (range) [3, 12]: 0.500 (0.250–1.00) h | Maximum plasma concentration in the preliminary pharmacokinetics study ([4]; 7.5 g dosage): 1.84 ± 0.626 ng/mL | Long-term stability, RR ([5]; atractylodin 0.600 ng/mL, deep freezer, 15 days): 98.4% | Long-term stability, RR ([5]; atractylodin 0.600 ng/mL, deep freezer, 29 days): 88.7% | Long-term stability, RR ([5]; atractylodin 0.600 ng/mL, deep freezer, 57 days): 101.4% | Long-term stability, RR ([5]; atractylodin 0.600 ng/mL, deep freezer, 169 days): 95.2% | Long-term stability, RR ([5]; atractylodin 16.0 ng/mL, deep freezer, 15 days): 98.6% | Long-term stability, RR ([5]; atractylodin 16.0 ng/mL, deep freezer, 29 days): 98.6% | Long-term stability, RR ([5]; atractylodin 16.0 ng/mL, deep freezer, 57 days): 109.4 | Long-term stability, RR ([5]; atractylodin 16.0 ng/mL, deep freezer, 169 days): 102.8% | Short-term stability, RR ([6]; atractylodin 0.600 ng/mL, deep freezer (−90.4°C to −69.5°C) for 4 h): 95.6% | Short-term stability, RR ([6]; atractylodin 0.600 ng/mL, deep freezer for 24 h): 101.5% | Short-term stability, RR ([6]; atractylodin 16.0 ng/mL, deep freezer (−90.4°C to −69.5°C) for 4 h): 101.9% | Short-term stability, RR ([6]; atractylodin 16.0 ng/mL, deep freezer for 24 h): 102.9% | Dose proportionality test using power model, Inference ([7]; AUC0-last): Nonlinear | Dose proportionality test using power model, β ([7]; AUC0-last): 1.60 | Dose proportionality test using power model, Inference ([7]; Cmax): Linear^a | Dose proportionality test using power model, β ([7]; Cmax): 0.988 | Stability in blood, remaining ratio (RR) ([8]; atractylodin 1.00 ng/mL, at room temperature for 2 h): 90.3% | Stability in blood, RR ([8]; atractylodin 1.00 ng/mL, on ice for 2 h): 93.8% | Freeze-thaw stability, RR ([10]; atractylodin 0.600 ng/mL, 2 cycles): 109.3% | Freeze-thaw stability, RR ([10]; atractylodin 0.600 ng/mL, 3 cycles): 115.1% | Freeze-thaw stability, RR ([10]; atractylodin 16.0 ng/mL, 2 cycles): 122.6% | Freeze-thaw stability, RR ([10]; atractylodin 16.0 ng/mL, 3 cycles): 133.6%
